Details: Liquid; for mass density: 298.15 K, 101.33 kPa, Vibrating tube method; for vapor or sublimation pressure: Ebulliometric method (Recirculating still)

C=C1CC/C=C(\C)CC[C@@H]2[C@@H]1CC2(C)C
Details	mass density [kg/m3]	vapor or sublimation pressure [kPa]
–	896.8	–
370.33 K	–	0.51
380.5 K	–	0.84
395.45 K	–	1.63
420.02 K	–	4.31
435.58 K	–	7.51
454.18 K	–	13.85
464.9 K	–	19.18
474.02 K	–	24.96
480.05 K	–	29.55
491.45 K	–	40.33
502.53 K	–	53.62
512.49 K	–	68.83
522.97 K	–	88.4
528.78 K	–	101.33

Cc1ccc(C(C)C)cc1 [1-(1-methylethyl)-4-methylbenzene]
Details	mass density [kg/m3]	vapor or sublimation pressure [kPa]
–	853.2	–
450.28 K	–	101.33

CC1=CCC2C(C1)C2(C)C (centres undefined) [3,7,7-trimethylbicyclo[4.1.0]hept-3-ene]
Details	mass density [kg/m3]	vapor or sublimation pressure [kPa]
–	863.8	–
356.07 K	–	5.32
378.03 K	–	14.5
388.7 K	–	20.46
391.9 K	–	22.59
396.66 K	–	26.61
405.49 K	–	34.54
412.42 K	–	42.81
416.18 K	–	47.76
424.04 K	–	59.53
426.24 K	–	63.19
430.64 K	–	70.97
433.68 K	–	76.91
436.32 K	–	82.05
439.47 K	–	89.96
442.61 K	–	96.43
444.44 K	–	101.33

Reference: the NIST ThermoML archive (doi:10.1016/j.jct.2018.08.015)
